# Experimental data from patent US20260184710A1, “CASITAS B-LINEAGE LYMPHOMA PROTOONCOGENE B (CBL-B) DEGRADING COMPOUNDS AND ASSOCIATED METHODS OF USE” (Arvinas Operations, Inc., priority 2022, published 2026).
# Target: T1, Cbl-b (Homo sapiens, UniProt Q13191)
# T1 construct: Cbl-b-HiBit KI Jurkat Cells were purchased from Promega; host or cells: Cbl-b-HiBiT knock-in Jurkat cells
# Assay: Cbl-b Degradation Method B (Nano-Glo HiBiT lytic detection)
# Type: cell-based
# Settings: Cbl-b-HiBit KI Jurkat Cells, incubated at least 6-24 hours; for DC50: half maximal degradation, read-out: Cbl-b Degredation Method B IC50; for Dmax: maximum degradation observed, read-out: Cbl-b Degredation Method B Dmax (%)
# How it was run: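 Cbl-b-HiBiT knock-in Jurkat cells (20,000/well) were treated after ~24 h plating with an 11-point 1:3 series for 6-24 h at 37° C. Remaining Cbl-b measured by Nano-Glo HiBiT lytic luminescence. DC50 and Dmax expressed as % of control.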
# T1 sequence (Q13191 whole entry): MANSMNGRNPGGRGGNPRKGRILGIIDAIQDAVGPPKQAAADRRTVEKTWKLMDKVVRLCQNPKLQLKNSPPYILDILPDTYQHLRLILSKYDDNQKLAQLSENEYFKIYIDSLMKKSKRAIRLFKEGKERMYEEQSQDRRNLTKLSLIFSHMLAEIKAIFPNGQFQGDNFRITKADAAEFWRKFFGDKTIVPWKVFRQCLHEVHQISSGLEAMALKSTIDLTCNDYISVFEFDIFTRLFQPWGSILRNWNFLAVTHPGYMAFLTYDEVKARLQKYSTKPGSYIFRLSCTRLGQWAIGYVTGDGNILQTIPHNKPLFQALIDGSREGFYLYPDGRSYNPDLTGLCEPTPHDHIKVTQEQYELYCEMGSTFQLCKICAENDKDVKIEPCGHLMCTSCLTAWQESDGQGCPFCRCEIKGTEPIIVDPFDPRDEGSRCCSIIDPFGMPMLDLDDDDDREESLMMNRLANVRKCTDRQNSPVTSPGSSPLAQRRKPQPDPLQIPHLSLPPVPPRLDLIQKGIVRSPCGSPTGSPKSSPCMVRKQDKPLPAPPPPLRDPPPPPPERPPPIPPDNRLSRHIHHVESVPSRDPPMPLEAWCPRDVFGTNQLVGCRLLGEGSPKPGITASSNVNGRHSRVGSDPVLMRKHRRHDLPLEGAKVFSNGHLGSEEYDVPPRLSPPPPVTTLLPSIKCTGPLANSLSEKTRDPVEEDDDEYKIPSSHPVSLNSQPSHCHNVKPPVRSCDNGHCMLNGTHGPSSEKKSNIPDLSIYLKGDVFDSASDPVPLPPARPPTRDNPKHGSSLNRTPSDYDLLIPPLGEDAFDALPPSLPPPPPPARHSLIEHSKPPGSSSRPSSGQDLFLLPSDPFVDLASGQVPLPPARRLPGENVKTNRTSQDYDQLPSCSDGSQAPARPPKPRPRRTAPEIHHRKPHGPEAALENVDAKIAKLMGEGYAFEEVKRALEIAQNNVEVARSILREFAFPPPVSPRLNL
DC50 [nM],Dmax [%],Structure (SMILES)
> 500,–,"C[C@@H]1c2nc(N3CCC(O[C@H]4CC[C@H](CN5CCN(Cc6cc7c(c(C(F)(F)F)c6)CN(c6cccc(C8(Cc9nncn9C)CC(C#N)C8)c6)C7=O)C(C)(C)C5)CC4)CC3)ccc2C(=O)N1C1CCC(=O)NC1=O (single isomer, unassigned) [Example 308, (1r***,3r***)-3-(3-{6-[(2,2-dimethyl-4-{[(1r**,4r**)-4-({1-[(7R*)-6-(2,6-dioxopiperidin-3-yl)-7-methyl-5-oxo-5H,6H,7H-pyrrolo[3,4-b]pyridin-2-yl]piperidin-4-yl}oxy)cyclohexyl]methyl}piperazin-1-yl)methyl]-1-oxo-4-(trifluoromethyl)-2,3-dihydro-1H-isoindol-2-yl}phenyl)-3-[(4-methyl-4H-1,2,4-triazol-3-yl)methyl]cyclobutane-1-carbonitrile]"
> 500,–,"Cn1cnnc1CC1(c2cccc(N3Cc4c(cc(CN5CCN(c6cc(N7CCN(c8ccc9c(c8)C(=O)N(C8CCC(=O)NC8=O)C9=O)CC7)ncn6)CC5)cc4C(F)(F)F)C3=O)c2)COC1 (centres unmarked) [Example 62, 2-(2,6-dioxopiperidin-3-yl)-5-{4-[6-(4-{[2-(3-{3-[(4-methyl-4H-1,2,4-triazol-3-yl)methyl]oxetan-3-yl}phenyl)-3-oxo-7-(trifluoromethyl)-2,3-dihydro-1H-isoindol-5-yl]methyl}piperazin-1-yl)pyrimidin-4-yl]piperazin-1-yl}-2,3-dihydro-1H-isoindole-1,3-dione]"
> 500,–,"Cn1cnnc1CC1(c2cccc(N3Cc4c(cc(CN5CCC(c6ccc7c(c6)C(=O)N(C6CCC(=O)NC6=O)C7)CC5)cc4C(F)(F)F)C3=O)c2)COC1 (centres unmarked) [Example 36, 3-[6-(1-{[2-(3-{3-[(4-methyl-4H-1,2,4-triazol-3-yl)methyl]oxetan-3-yl}phenyl)-3-oxo-7-(trifluoromethyl)-2,3-dihydro-1H-isoindol-5-yl]methyl}piperidin-4-yl)-1-oxo-2,3-dihydro-1H-isoindol-2-yl]piperidine-2,6-dione]"
< 5,> 70,"C[C@H]1CN(CC2CCC(OC3CCN(c4ccc5c(c4F)CN(C4CCC(=O)NC4=O)C5=O)CC3)CC2)[C@@H](C)CN1Cc1cc2c(c(C(F)(F)F)c1)CN(c1cccc(C3(Cc4nncn4C)COC3)c1)C2=O (stereo partly drawn) [Example 242, 3-[4-fluoro-1-oxo-5-(4-{[(1rs,4rs)-4-{[(2S,5S)-2,5-dimethyl-4-{[2-(3-{3-[(4-methyl-4H-1,2,4-triazol-3-yl)methyl]oxetan-3-yl}phenyl)-3-oxo-7-(trifluoromethyl)-2,3-dihydro-1H-isoindol-5-yl]methyl}piperazin-1-yl]methyl}cyclohexyl]oxy}piperidin-1-yl)-2,3-dihydro-1H-isoindol-2-yl]piperidine-2,6-dione]"
> 500,–,"COc1ccc(C(=O)N2CCC(CN3CCN(Cc4cc5c(c(C(F)(F)F)c4)CN(c4cccc(C6(Cc7nncn7C)COC6)c4)C5=O)CC3)CC2)cc1N1CCC(=O)NC1=O [Example 53, 1-(2-methoxy-5-{4-[(4-{[2-(3-{3-[(4-methyl-4H-1,2,4-triazol-3-yl)methyl]oxetan-3-yl}phenyl)-3-oxo-7-(trifluoromethyl)-2,3-dihydro-1H-isoindol-5-yl]methyl}piperazin-1-yl)methyl]piperidine-1-carbonyl}phenyl)-1,3-diazinane-2,4-dione]"
> 500,–,"Cn1cnnc1CC1(c2cccc(N3Cc4c(cc(CN5CCCC(OC6CCN(c7ccc8c(c7F)CN(C7CCC(=O)NC7=O)C8=O)CC6)C5)cc4C(F)(F)F)C3=O)c2)COC1 (centres unmarked) [Example 156, 3-(4-fluoro-5-{4-[(1-{[2-(3-{3-[(4-methyl-4H-1,2,4-triazol-3-yl)methyl]oxetan-3-yl}phenyl)-3-oxo-7-(trifluoromethyl)-2,3-dihydro-1H-isoindol-5-yl]methyl}piperidin-3-yl)oxy]piperidin-1-yl}-1-oxo-2,3-dihydro-1H-isoindol-2-yl)piperidine-2,6-dione]"
50 to 500,35 to 70,"Cn1cnnc1CC1(c2cccc(N3Cc4c(cc(CN5CC(C6CN(c7ccc8c(c7)C(=O)N(C7CCC(=O)NC7=O)C8=O)C6)C5)cc4C(F)(F)F)C3=O)c2)COC1 (centres unmarked) [Example 48, 2-(2,6-dioxopiperidin-3-yl)-5-(1′-{[2-(3-{3-[(4-methyl-4H-1,2,4-triazol-3-yl)methyl]oxetan-3-yl}phenyl)-3-oxo-7-(trifluoromethyl)-2,3-dihydro-1H-isoindol-5-yl]methyl}-[3,3′-biazetidin]-1-yl)-2,3-dihydro-1H-isoindole-1,3-dione]"
> 500,–,"Cn1cnnc1CC1(c2cccc(N3Cc4c(cc(CN5CCC(CN6CCN(c7ccc8c(c7)C(=O)N(C7CCC(=O)NC7=O)C8=O)CC6)C5)cc4C(F)(F)F)C3=O)c2)COC1 (centres unmarked) [Example 80, 2-(2,6-dioxopiperidin-3-yl)-5-{4-[(1-{[2-(3-{3-[(4-methyl-4H-1,2,4-triazol-3-yl)methyl]oxetan-3-yl}phenyl)-3-oxo-7-(trifluoromethyl)-2,3-dihydro-1H-isoindol-5-yl]methyl}pyrrolidin-3-yl)methyl]piperazin-1-yl}-2,3-dihydro-1H-isoindole-1,3-dione]"
> 500,–,"Cn1cnnc1CC1(c2cccc(-n3cc4c(C(F)(F)F)cc(CN5CCC[C@H](CN6CCC(OC7CCN(c8ccc9c(c8F)CN(C8CCC(=O)NC8=O)C9=O)CC7)CC6)C5)cc4n3)c2)COC1 (stereo partly drawn) [Example 259, 3-(4-fluoro-5-{4-[(1-{[(3R)-1-{[2-(3-{3-[(4-methyl-4H-1,2,4-triazol-3-yl)methyl]oxetan-3-yl}phenyl)-4-(trifluoromethyl)-2H-indazol-6-yl]methyl}piperidin-3-yl]methyl}piperidin-4-yl)oxy]piperidin-1-yl}-1-oxo-2,3-dihydro-1H-isoindol-2-yl)piperidine-2,6-dione]"
< 5,> 70,"CC(C)n1c(=O)n(C2CCC(=O)NC2=O)c2ccc(N3CCC(O[C@H]4CC[C@H](CN5CCN(Cc6cc7c(c(C(F)(F)F)c6)CN(c6cccc([C@]8(Cc9nncn9C)C[C@@H](C#N)C8)c6)C7=O)C(C)(C)C5)CC4)CC3)cc21 (some centres unmarked) [Example 229, (1r,3r)-3-(3-{6-[(2,2-dimethyl-4-{[(1r,4r)-4-({1-[1-(2,6-dioxopiperidin-3-yl)-2-oxo-3-(propan-2-yl)-2,3-dihydro-1H-1,3-benzodiazol-5-yl]piperidin-4-yl}oxy)cyclohexyl]methyl}piperazin-1-yl)methyl]-1-oxo-4-(trifluoromethyl)-2,3-dihydro-1H-isoindol-2-yl}phenyl)-3-[(4-methyl-4H-1,2,4-triazol-3-yl)methyl]cyclobutane-1-carbonitrile]"
5 to 50,35 to 70,"Cc1cc(C2CCN(CC3CCC4(CC3)CN(c3cc5c(c(C(F)(F)F)c3)CN(c3cccc([C@]6(Cc7nncn7C)C[C@@H](C#N)C6)c3)C5=O)C4)CC2)c(F)c2c1C(=O)N(C1CCC(=O)NC1=O)C2 (some centres unmarked) [Example 272, (1r,3r)-3-(3-{6-[7-({4-[2-(2,6-dioxopiperidin-3-yl)-4-fluoro-7-methyl-1-oxo-2,3-dihydro-1H-isoindol-5-yl]piperidin-1-yl}methyl)-2-azaspiro[3.5]nonan-2-yl]-1-oxo-4-(trifluoromethyl)-2,3-dihydro-1H-isoindol-2-yl}phenyl)-3-[(4-methyl-4H-1,2,4-triazol-3-yl)methyl]cyclobutane-1-carbonitrile]"
< 5,> 70,"CC(C)n1c(=O)n(C2CCC(=O)NC2=O)c2ccc(N3CCC(O[C@H]4CC[C@@H](CN5CCN(C[C@H]6CCCN(Cc7cc8c(c(C(F)(F)F)c7)CN(c7cccc(C9(Cc%10nncn%10C)COC9)c7)C8=O)C6)C(C)(C)C5)CC4)CC3)cc21 (stereo partly drawn) [Example 263, 3-[2-oxo-3-(propan-2-yl)-5-(4-{[(1r,4r)-4-[(3,3-dimethyl-4-{[(3S)-1-{[2-(3-{3-[(4-methyl-4H-1,2,4-triazol-3-yl)methyl]oxetan-3-yl}phenyl)-3-oxo-7-(trifluoromethyl)-2,3-dihydro-1H-isoindol-5-yl]methyl}piperidin-3-yl]methyl}piperazin-1-yl)methyl]cyclohexyl]oxy}piperidin-1-yl)-2,3-dihydro-1H-1,3-benzodiazol-1-yl]piperidine-2,6-dione]"
> 500,–,"Cn1cnnc1C[C@]1(c2cccc(N3Cc4c(cc(CN5CCN(C[C@H]6CC[C@H](OC7CCN(c8ccc(C9CCC(=O)NC9=O)cn8)CC7)CC6)CC5)cc4C(F)(F)F)C3=O)c2)C[C@H](C#N)C1 (some centres unmarked) [Example 210, (1r,3r)-3-[(4-methyl-4H-1,2,4-triazol-3-yl)methyl]-3-(3-{1-oxo-6-[(4-{[(1r,4r)-4-({1-[5-(2,6-dioxopiperidin-3-yl)pyridin-2-yl]piperidin-4-yl}oxy)cyclohexyl]methyl}piperazin-1-yl)methyl]-4-(trifluoromethyl)-2,3-dihydro-1H-isoindol-2-yl}phenyl)cyclobutane-1-carbonitrile]"
5 to 50,35 to 70,"CC1c2nc(N3CCC(O[C@H]4CC[C@H](CN5CCN(Cc6cc(C(F)(F)F)c7cn(-c8cccc(C9(Cc%10nncn%10C)CC(C#N)C9)c8)nc7c6)C(C)(C)C5)CC4)CC3)ccc2C(=O)N1C1CCC(=O)NC1=O (some centres unmarked) [Example 252, (1r**,3r**)-3-(3-{6-[(2,2-dimethyl-4-{[(1r*,4r*)-4-({1-[6-(2,6-dioxopiperidin-3-yl)-7-methyl-5-oxo-5H,6H,7H-pyrrolo[3,4-b]pyridin-2-yl]piperidin-4-yl}oxy)cyclohexyl]methyl}piperazin-1-yl)methyl]-4-(trifluoromethyl)-2H-indazol-2-yl}phenyl)-3-[(4-methyl-4H-1,2,4-triazol-3-yl)methyl]cyclobutane-1-carbonitrile]"
